From publication PMC11073913 (Archiv der Pharmazie, 2024)
Where “and” joins values, the source holds several entries; their conditions need not be identical. Equal values may be shown once. Read-outs that look alike come from different tables or passages of the source.

What was measured:
human recombinant COX-2 = target: T1, human recombinant COX-2 (Homo sapiens, UniProt P35354); assay: In vitro COX-2 inhibitory assay; format: biochemical; settings: for Enhancement of anti-COX-2 activity by p-Cl on benzylidine: compared with unsubstituted compounds 4b, 4c, 4g, 4h respectively
T1 sequence (P35354 18-604): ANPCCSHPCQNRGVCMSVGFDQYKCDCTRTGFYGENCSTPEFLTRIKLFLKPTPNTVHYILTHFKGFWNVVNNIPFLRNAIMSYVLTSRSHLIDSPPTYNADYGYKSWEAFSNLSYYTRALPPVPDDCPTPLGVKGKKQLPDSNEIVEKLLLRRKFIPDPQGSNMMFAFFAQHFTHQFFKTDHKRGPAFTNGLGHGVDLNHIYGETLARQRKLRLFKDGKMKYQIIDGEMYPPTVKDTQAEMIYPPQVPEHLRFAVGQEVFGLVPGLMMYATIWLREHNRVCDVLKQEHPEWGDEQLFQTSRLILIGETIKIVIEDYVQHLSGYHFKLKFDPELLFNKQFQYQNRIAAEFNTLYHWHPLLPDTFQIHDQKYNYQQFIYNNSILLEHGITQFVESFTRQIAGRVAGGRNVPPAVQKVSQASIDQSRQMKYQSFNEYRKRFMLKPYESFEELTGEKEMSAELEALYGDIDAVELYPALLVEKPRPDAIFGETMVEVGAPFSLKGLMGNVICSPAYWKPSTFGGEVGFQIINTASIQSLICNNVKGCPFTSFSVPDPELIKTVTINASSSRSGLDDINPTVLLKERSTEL

[1] = test system: LPS-induced ROS production in RAW 264.7 cells; assay: cells; settings: Mus musculus, RAW264.7, 18 h, read-out: ROS (IC50)
[2] = test system: LPS-induced IL-6 production in RAW 264.7 cells; settings: LPS-activated RAW 264.7; for IL-6 level: cells treated with 25 μM compound
soybean 15-LOX = target: T2, soybean 15-LOX (Glycine max, UniProt P08170); assay: In vitro 15-LOX inhibitory assay; format: biochemical
T2 sequence (P08170 1-839): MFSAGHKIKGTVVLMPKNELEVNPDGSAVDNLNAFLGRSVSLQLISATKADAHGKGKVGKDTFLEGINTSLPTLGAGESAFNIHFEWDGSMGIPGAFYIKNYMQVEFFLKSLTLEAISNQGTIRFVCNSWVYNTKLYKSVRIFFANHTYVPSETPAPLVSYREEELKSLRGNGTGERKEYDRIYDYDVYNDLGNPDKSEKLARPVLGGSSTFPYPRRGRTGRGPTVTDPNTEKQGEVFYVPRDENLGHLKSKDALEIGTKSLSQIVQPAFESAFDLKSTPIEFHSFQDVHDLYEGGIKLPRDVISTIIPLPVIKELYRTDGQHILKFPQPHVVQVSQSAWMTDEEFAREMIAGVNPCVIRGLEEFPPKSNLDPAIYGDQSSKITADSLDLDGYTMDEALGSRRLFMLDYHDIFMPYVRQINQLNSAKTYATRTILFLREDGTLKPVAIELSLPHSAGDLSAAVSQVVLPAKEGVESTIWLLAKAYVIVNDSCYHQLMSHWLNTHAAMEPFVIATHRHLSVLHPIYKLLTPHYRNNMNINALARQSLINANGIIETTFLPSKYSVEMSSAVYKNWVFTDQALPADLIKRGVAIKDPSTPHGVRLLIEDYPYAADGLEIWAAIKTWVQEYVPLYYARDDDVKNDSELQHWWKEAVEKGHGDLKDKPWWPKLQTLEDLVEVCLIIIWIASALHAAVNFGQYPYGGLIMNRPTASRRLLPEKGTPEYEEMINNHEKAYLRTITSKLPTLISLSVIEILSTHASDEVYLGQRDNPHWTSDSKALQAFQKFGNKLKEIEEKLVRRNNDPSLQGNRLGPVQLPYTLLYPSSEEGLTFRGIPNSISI

Cell viability assay = format: cell-based, murine; settings: mouse, RAW 264.7 macrophage cells
ovine COX-1 = target: T3, ovine COX-1 (Ovis aries, UniProt P05979); assay: In vitro COX-1 inhibitory assay; format: biochemical
T3 sequence (P05979 25-600): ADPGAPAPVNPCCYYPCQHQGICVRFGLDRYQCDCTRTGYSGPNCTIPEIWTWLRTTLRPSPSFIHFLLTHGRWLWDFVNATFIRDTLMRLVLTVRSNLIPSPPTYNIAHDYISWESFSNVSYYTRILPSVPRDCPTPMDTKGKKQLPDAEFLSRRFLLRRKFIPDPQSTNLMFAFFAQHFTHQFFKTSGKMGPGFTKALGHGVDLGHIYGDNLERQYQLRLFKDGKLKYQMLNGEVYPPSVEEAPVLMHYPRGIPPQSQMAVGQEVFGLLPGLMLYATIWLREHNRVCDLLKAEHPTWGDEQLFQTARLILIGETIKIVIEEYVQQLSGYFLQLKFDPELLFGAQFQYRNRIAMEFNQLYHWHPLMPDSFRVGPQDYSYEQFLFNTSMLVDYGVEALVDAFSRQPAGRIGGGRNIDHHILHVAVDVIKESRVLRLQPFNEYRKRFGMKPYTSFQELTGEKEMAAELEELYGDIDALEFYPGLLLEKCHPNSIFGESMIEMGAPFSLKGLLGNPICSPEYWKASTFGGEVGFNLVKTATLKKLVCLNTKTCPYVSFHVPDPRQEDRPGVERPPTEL

[3] = test system: LPS-induced TNF-α production in RAW 264.7 cells; settings: for TNF-α level: cells treated with 25 μM compound
[4] = test system: LPS-induced ROS production in RAW 264.7 cells; settings: read-out: ROS (IC50), LPS (1 μg/mL) 18 h, mean ± SEM
[5] = test system: NF-κB activation in RAW 264.7 macrophages; assay: NF-κB activation in LPS-activated RAW 264.7 macrophages; format: cell-based, murine; settings: 25 μM pretreatment, Western blot
[6] = read-out: 15-LOX IC50, soybean 15-LOX
[7] = read-out: COX1, IC50, ovine COX-1, mean ± SEM

SMILES | IC50 (human recombinant COX-2) [µM] | SI (Selectivity index = COX-1 IC50/COX-2 IC50) (human recombinant COX-2; COX-1 IC50/COX-2 IC50) | Enhancement of anti-COX-2 activity by p-Cl on benzylidine (human recombinant COX-2) [folds] | IC50 [1] [µM] | IL-6 level [2] | IC50 (soybean 15-LOX) [µM] | viability at 50 µM (Cell viability assay) [%] | IC50 (ovine COX-1) [µM] | TNF-α level ([3]; LPS-activated RAW 264.7) | SI (Selectivity index = COX-1 IC50/COX-2 IC50) (human recombinant COX-2) | IC50 (human recombinant COX-2; read-out: COX2, IC50) [µM] | IC50 (soybean 15-LOX; [6]) [µM] | IC50 (ovine COX-1; [7]) [µM] | IC50 [4] [µM] | LPS-mediated increase in NF-κB activation (phospho/total NF-κB) [5] | Lowering of IL-6 level [2] | Lowering of TNF-α level ([3]; LPS-activated RAW 264.7) | TNF-α inhibition, fold more potent than celecoxib ([3]; vs celecoxib) [fold]
O=C(CSC1=N/C(=C\c2ccc(Cl)cc2)C(=O)N1c1ccccc1)Nc1ccc(F)cc1 [Compound 4k, (Z)-2-{[4-(4-Chlorobenzylidene)-5-oxo-1-phenyl-4,5-dihydro-1H-imidazol-2-yl]thio}-N-(4-fluorophenyl)acetamide] | 0.07 ± 0.034 | 186.28 | 1.85 | 71 ± 1.55 | 27.57 ± 14.76 pg/mL | 2.17 ± 1.04 | 83 to 105 | 13 ± 1.82 | 28.29 ± 14.76 pg/mL | – | – | – | – | – | – | – | – | –
O=C(CSC1=N/C(=C\c2ccccc2)C(=O)N1c1ccccc1)Nc1ccc(Br)cc1 [Compound 4d, (Z)-2-[(4-Benzylidene-5-oxo-1-phenyl-4,5-dihydro-1H-imidazol-2-yl)thio]-N-(4-bromophenyl) acetamide] | – | – | – | – | 26.35 pg/mL and 26.35 ± 4.22 pg/mL | – | – | – | 27.08 pg/mL and 27.08 ± 4.22 pg/mL | 64.13 | 0.13 ± 0.071 | 5.14 ± 2.48 | 8.14 ± 1.53 | 62.1 ± 1.51 | – | – | – | –
O=C(CSC1=N/C(=C\c2ccc(Cl)cc2)C(=O)N1c1ccccc1)Nc1ccc(Cl)cc1 [Compound 4l, (Z)-2-{[4-(4-Chlorobenzylidene)-5-oxo-1-phenyl-4,5-dihydro-1H-imidazol-2-yl]thio}-N-(4-chlorophenyl)acetamide] | 0.08 ± 0.035 | 154.73 | 1.75 | 52.7 ± 1.35 | 25.57 pg/mL and 25.75 ± 5.33 pg/mL | 2.69 ± 1.29 | 83 to 105 | 12.3 ± 1.84 | 26.47 ± 5.33 pg/mL | – | – | – | – | – | attenuated | – | – | –
COc1ccc(NC(=O)CSC2=N/C(=C\c3ccccc3)C(=O)N2c2ccccc2)cc1 [Compound 4f, (Z)-2-[(4-Benzylidene-5-oxo-1-phenyl-4,5-dihydro-1H-imidazol-2-yl)thio]-N-(4-methoxyphenyl)acetamide] | 0.08 ± 0.04 | 131.59 | – | 22.8 ± 1.32 | 22.21 pg/mL and 22.21 ± 6.32 pg/mL | 3.96 ± 1.49 | 83 to 105 | 11 ± 1.53 | 22.94 ± 6.32 pg/mL | – | – | – | – | – | attenuated | ~ 80% | ~ 80% | –
Cc1ccc(NC(=O)CSC2=N/C(=C\c3ccccc3)C(=O)N2c2ccccc2)cc1 [Compound 4e, (Z)-2-[(4-Benzylidene-5-oxo-1-phenyl-4,5-dihydro-1H-imidazol-2-yl)thio]-N-(4-tolyl) acetamide] | – | – | – | – | 34.33 ± 1.82 pg/mL | – | – | – | 58.19 ± 23.16 pg/mL | 90.85 | 0.1 ± 0.048 | 5.14 ± 2.48 | 9.12 ± 1.4 | 118 ± 2.36 | – | – | – | –
COc1cc(NC(=O)CSC2=N/C(=C\c3ccccc3)C(=O)N2c2ccccc2)cc(OC)c1OC [Compound 4g, (Z)-2-[(4-Benzylidene-5-oxo-1-phenyl-4,5-dihydro-1H-imidazol-2-yl)thio]-N-(3,4,5-trimethoxyphenyl) acetamide] | – | – | – | – | 11.51 ± 3.09 pg/mL | – | – | – | 12.23 pg/mL and 12.23 ± 3.09 pg/mL | 68.07 | 0.14 ± 0.073 | 2.82 ± 1.27 | 9.83 ± 1.65 | 65.9 ± 1.55 | – | – | – | ~2
O=C(CSC1=N/C(=C\c2ccccc2)C(=O)N1c1ccccc1)Nc1ccc(Cl)cc1 [Compound 4c, (Z)-2-[(4-Benzylidene-5-oxo-1-phenyl-4,5-dihydro-1H-imidazol-2-yl)thio]-N-(4-chlorophenyl) acetamide] | – | – | – | – | 49.08 ± 23.20 pg/mL | – | – | – | 49.81 ± 23.20 pg/mL | 64.62 | 0.14 ± 0.062 | 3.24 ± 1.46 | 9.12 ± 1.4 | 61.6 ± 1.51 | – | – | – | –
O=C(CSC1=N/C(=C\c2ccccc2)C(=O)N1c1ccccc1)Nc1ccc(F)cc1 [Compound 4b, (Z)-2-[(4-Benzylidene-5-oxo-1-phenyl-4,5-dihydro-1H-imidazol-2-yl)thio]-N-(4-fluorophenyl) acetamide] | – | – | – | – | 50.90 ± 10.35 pg/mL | – | – | – | 51.63 ± 10.35 pg/mL | 99.06 | 0.13 ± 0.068 | 3.13 ± 1.49 | 12.6 ± 1.78 | 23.8 ± 1.44 | – | – | – | –
Cc1ccc(NC(=O)CSC2=N/C(=C\c3ccc(Cl)cc3)C(=O)N2c2ccccc2)cc1 [Compound 4n, (Z)-2-{[4-(4-Chlorobenzylidene)-5-oxo-1-phenyl-4,5-dihydro-1H-imidazol-2-yl]thio}-N-(4-tolyl)acetamide] | 0.12 ± 0.053 | 79.96 | – | 41 ± 1.39 | 36.56 ± 14.95 pg/mL | 3.13 ± 1.49 | – | 9.45 ± 1.33 | 37.28 ± 14.95 pg/mL | – | – | – | – | – | – | – | – | –
